Laboratory results: patent publication US11904025B2, “Cyclophanes for live-cell imaging” (Northwestern University, priority 2018, dated 2024)
“Also recorded” adds a separate entry of the source. Blank lines part the entries; values can stand above or below the molecule they belong to.

Experiments:
[1] = UV light photobleaching / photostability in solution; format: physicochemical
Protocol: Samples were irradiated with a 18 W LED UV flashlight (395 nm, Hinmay super bright LED). They were immersed in a 23±1° C. water bath during irradiation periods. (FIG. 5A-5B)

[2] = Fluorescence at different pH and in serum; format: physicochemical
Protocol: (§1) UV/Vis Absorption spectra were recorded using a UV-3600 Shimadzu spectrophotometer. Steady-state emission spectra were acquired using HORIBA Nanolog spectrofluorimeter equipped with an integrating sphere for absolute photoluminescence quantum yield determination and time-correlated single-photon counting (TCSPC) module for emission decays of 4·2Cl in H2O. The time-resolved fluorescence (TRF) measurement of 6·4Cl in H2O was carried out with a streak camera system (Hamamatsu C4334 Streakscope).

Solubility = settings: H2O
[3] = Absolute fluorescence quantum yield; format: physicochemical; settings: in H2O
Protocol: as §1

RAW 264.7 macrophages [4] = assay: Live cell confocal microscopy; format: cell-based, Murine; settings: for fluorescence inside cells after incubation: RAW 264.7 cells, 4 h incubation (6·4Cl 20 μM in PBS); for photobleaching inside cells under imaging conditions: blue laser excitation
Protocol: RAW 264.7 macrophages (1×10^5 cells/mL, 475 μL) were plated in each well of a 4 well p-slide (ibidi cell focus) and cultured overnight. […] After incubation, cells were washed with phenol free DMEM and stained with LysoTracker green (lysosome stain) or SYTO nuclei (nuclear stain) at 1:10,000 dilutions. Controls used were cells added with only stains, cells only and cells with materials only. Plated cells were imaged within a humidified chamber using a 100× oil-immersion objective on an SP5 Leica Confocal Microscope using HyD detectors and lasers: 405 nm diode laser for material, 561 nm HeNe laser for Lysotracker green, and 633 nm HeNe laser for SYTO 61.

RAW 264.7 cells = assay: MTT assay, cell viability after 24 h incubation; settings: for cell viability: RAW 264.7 cells, 100 μM loading concentration, 24 h incubation
Protocol: Cell culture: Murine macrophages (RAW 264.7 cells) that were obtained from the American Type Culture Collection (ATCC, Rockville, MD, USA) were utilized for cell culture experiments.
After 24 h incubation, each well was added with MTT (5 mg/ml in PBS, 10 μL) and then incubated for 4 h. The media from each well was pipetted out, formazan crystals deposited on the plate were dissolved in 200 μL of dimethyl sulfoxide and the absorbance of each well was measured using a microplate reader at 560 nm.
All the samples were analyzed in quadruplicates. The percentage cell viability was then calculated using the formula: % cell viability=(OD of treated sample/OD of the untreated sample)*100.

RAW 264.7 macrophages [5] = assay: Phototoxicity studies (irradiation, then Calcein AM viability); format: cell-based, Murine; settings: RAW 264.7 cells, different concentrations, light 410 nm, 25 mW, 15 min
Protocol: After 24 h incubation, wells were washed with PBS, added with 100 μL of DMEM and immediately irradiated with visible light using Max-303 Xenon Light Source (410 nm, Asahi Spectra) at a light intensity of […] for 15 min. Following irradiation cells were incubated overnight and viability was measured using Calcein AM as described above.

RAW 264.7 macrophages [6] = assay: Calcein AM cell viability assay; format: cell-based, Murine; settings: RAW 264.7 cells, 24 h incubation, 1.56-100 μM
Protocol: After 24 h of incubation, cells were washed twice with PBS, added with Calcein AM (1 μM, 100 μL in PBS) to each well and then incubated for 1 h in the dark. […] The measured fluorescence intensity (FI) is proportional to the number of viable cells.

- photostability in H2O ([1]; H2O, several months under natural daylight): extremely photostable
- loss of absorbance intensity on UV irradiation (photobleaching) ([1]; UV flashlight 18 W, 395 nm, 60 min): a little loss of absorbance intensity
- fluorescence in serum compared with water ([2]; 10% Fetal bovine serum): slightly lower fluorescence intensity
- change of fluorescence characteristics with pH ([2]; pH=1 to 7): without any change
- water solubility (Solubility): highly water-soluble
- fluorescence quantum yield ΦF [3]: 1.00
- fluorescence quantum yield ΦF ([3]; listed as 6^4+): unity
SMILES: c1cc2ccc1C[n+]1ccc(cc1)-c1ccc(cc1)-c1cc[n+](cc1)Cc1ccc(cc1)C[n+]1ccc(cc1)-c1nc3sc(nc3s1)-c1cc[n+](cc1)C2 [6·4Cl, ExTz·4Cl]
- fluorescence inside cells after incubation (RAW 264.7 macrophages [4]): brilliant blue emission
- photobleaching inside cells under imaging conditions (RAW 264.7 macrophages [4]; RAW 264.7 macrophages): without any hint of photobleaching
- cellular uptake (RAW 264.7 macrophages [4]; RAW 264.7 macrophages, confocal microscopy, listed as 6^4+): efficiently taken up
- fluorescence brightness inside the cells relative to reference 4^2+ (RAW 264.7 macrophages [4]; live cells): six times brighter
- cellular localization (RAW 264.7 macrophages [4]; living macrophages, co-incubation with LysoTracker green): enters the lysosomes
- cytotoxicity (in words) (RAW 264.7 cells; RAW 264.7 macrophages, loading concentration as high as 100 μM): non-cytotoxic; also recorded: less cytotoxic
- phototoxicity (RAW 264.7 macrophages [5]): no phototoxicity
- cell viability by Calcein AM versus MTT result (RAW 264.7 macrophages [6]): confirmed

SMILES: c1cc2ccc1C[n+]1ccc(cc1)-c1cc[n+](cc1)Cc1ccc(cc1)C[n+]1ccc(cc1)-c1cc[n+](cc1)C2 [BlueBox, BlueBox·4Cl]
- cell viability (RAW 264.7 cells): over 96%

SMILES: C[n+]1ccc(-c2cc[n+](C)cc2)cc1 [paraquat, dimethyl viologen]
- cell viability (RAW 264.7 cells): ~63%

SMILES: C[n+]1ccc(-c2ccc(-c3cc[n+](C)cc3)cc2)cc1 [2·2Cl, Me2ExBIPY·2Cl]
- cell viability (RAW 264.7 cells): 68%

SMILES: C[n+]1ccc(-c2nc3sc(-c4cc[n+](C)cc4)nc3s2)cc1 [4·2Cl, 4,4′-(Thiazolo[5,4-d]thiazole-2,5-diyl)bis(1-methylpyridinium), reference compound]
- water solubility (Solubility): Water soluble
- fluorescence quantum yield ΦF [3]: 0.95
- fluorescence inside cells after incubation (RAW 264.7 macrophages [4]): only a little fluorescence
- fluorescence inside cells after incubation (RAW 264.7 macrophages [4]; listed as Me2TzBIPY·2Cl): very little fluorescence
- photobleaching inside cells under imaging conditions (RAW 264.7 macrophages [4]; RAW 264.7 macrophages): quenched completely
- time until fluorescence inside the cells is quenched (RAW 264.7 macrophages [4]; laser irradiation under imaging conditions): ≤ 3 s
- cell viability (RAW 264.7 cells): ~75%
